In this data set the test system is CCRIS mutagenicity, Ames/micronucleus/aberration tests. The data set can be described thus: CCRIS mutagenicity studies.
Setting [1] is: Test System: AMES SALMONELLA TYPHIMURIUM, Strain/Indicator: TA98, Metabolic Activation: NONE, Method: PREINCUBATION
[2] abbreviates: Test System: AMES SALMONELLA TYPHIMURIUM, Strain/Indicator: TA100, Metabolic Activation: NONE, Method: PREINCUBATION
Setting [3] is: Test System: AMES SALMONELLA TYPHIMURIUM, Strain/Indicator: TA100, Metabolic Activation: NONE, Method: STANDARD PLATE.
Where [4] appears, read: Test System: AMES SALMONELLA TYPHIMURIUM, Strain/Indicator: TA1535, Metabolic Activation: NONE, Method: PREINCUBATION
Setting [5] is: Test System: AMES SALMONELLA TYPHIMURIUM, Strain/Indicator: TA1537, Metabolic Activation: NONE, Method: PREINCUBATION
Setting [6] is: Test System: AMES SALMONELLA TYPHIMURIUM, Strain/Indicator: TA100, Metabolic Activation: RAT, LIVER, S-9, AROCLOR 1254, Method: PREINCUBATION
[7] abbreviates: Test System: AMES SALMONELLA TYPHIMURIUM, Strain/Indicator: TA98, Metabolic Activation: NONE, Method: STANDARD PLATE.

Consider eight compounds from PubChem BioAssay AID1259407 (Chemical Carcinogenesis Research Information System (CCRIS), 2018).

Active and inactive are the calls of the source. The rule behind the calls is not given here.

For the compound `CC(Br)CBr` (stereo unspecified), the mutagenic call (Test System: AMES SALMONELLA TYPHIMURIUM, Strain/Indicator: TA97, Metabolic Activation: NONE, Method: STANDARD PLATE) was “inactive; negative”; the mutagenic call (Test System: AMES SALMONELLA TYPHIMURIUM, Strain/Indicator: TA97, Metabolic Activation: RAT, LIVER, S-9, PCB, Method: STANDARD PLATE) is “inactive; negative”; the mutagenic call under setting [1] was “inactive; negative”; the mutagenic call (Test System: AMES SALMONELLA TYPHIMURIUM, Strain/Indicator: TA98, Metabolic Activation: RAT LIVER S-9, PHENOBARBITAL AND BETA-NAPHTHOFLAVONE, Method: PREINCUBATION) was “inactive; negative”; the mutagenic call under setting [2] was “inactive; negative”; the mutagenic call under setting [3] was “inactive; negative”. Moreover, the mutagenic call was “inactive; negative” (Test System: AMES SALMONELLA TYPHIMURIUM, Strain/Indicator: TA100, Metabolic Activation: RAT LIVER S-9, PHENOBARBITAL AND BETA-NAPHTHOFLAVONE, Method: PREINCUBATION); “active; positive” (Test System: AMES SALMONELLA TYPHIMURIUM, Strain/Indicator: TA100, Metabolic Activation: RAT, LIVER, MICROSOMES, PHENOBARBITAL, NADPH COFACTORS, Method: STANDARD PLATE); “active; positive” (Test System: AMES SALMONELLA TYPHIMURIUM, Strain/Indicator: TA100, Metabolic Activation: RAT, LIVER, MICROSOMES, PHENOBARBITAL, Method: STANDARD PLATE); “inactive; negative” (Test System: AMES SALMONELLA TYPHIMURIUM, Strain/Indicator: TA100, Metabolic Activation: RAT, LIVER, S-9, PCB, Method: STANDARD PLATE); “inactive; negative” (Test System: AMES SALMONELLA TYPHIMURIUM, Strain/Indicator: TA1534, Metabolic Activation: HOST-MEDIATED, Method: IN VIVO); “inactive; negative” under setting [4]. Further, the mutagenic call runs as follows: under setting [5], “inactive; negative”; (Test System: AMES SALMONELLA TYPHIMURIUM, Strain/Indicator: TA1537, Metabolic Activation: RAT LIVER S-9, PHENOBARBITAL AND BETA-NAPHTHOFLAVONE, Method: PREINCUBATION) “inactive; negative”; (Test System: AMES SALMONELLA TYPHIMURIUM, Strain/Indicator: TA1950, Metabolic Activation: HOST-MEDIATED, Method: IN VIVO) “inactive; negative”; (Test System: E.COLI, Strain/Indicator: WP2UVRA, Metabolic Activation: NONE, Method: PREINCUBATION) “inactive; negative”; (Test System: E.COLI, Strain/Indicator: WP2UVRA, Metabolic Activation: RAT LIVER S-9, PHENOBARBITAL AND BETA-NAPHTHOFLAVONE, Method: PREINCUBATION) “inactive; negative”; (Test System: UDS RAT HEPATOCYTES, Strain/Indicator: THY INCORP, Metabolic Activation: NONE) “active; positive”.

For the compound `Cc1c2c(c(C)c3c1ccc1ccccc13)C=C[C@@H](O)[C@@H]2O`, the mutagenic call (Test System: CHINESE HAMSTER V-79, Strain/Indicator: V-79/OUABAIN, Metabolic Activation: CELL-MEDIATED, Method: STANDARD PLATE) is “active; positive”.

For the compound `O=S(=O)(O)c1cc(S(=O)(=O)O)c2c(N=Nc3ccc(S(=O)(=O)O)c4ccccc34)c(O)ccc2c1`, the mutagenic call by setting is: (End Point: IN VIVO MICRONUCLEUS, Test System: BONE MARROW POLYCHROMATIC ERYTHROCYTES, Species: MOUSE, Strain/Sex: DDY/MALE, Route: IP) “inactive; negative”; under setting [1], “inactive; negative”; (Test System: AMES SALMONELLA TYPHIMURIUM, Strain/Indicator: TA98, Metabolic Activation: S-9, Method: PREINCUBATION) “inactive; negative”; under setting [2], “inactive; negative”; (Test System: AMES SALMONELLA TYPHIMURIUM, Strain/Indicator: TA100, Metabolic Activation: S-9, Method: PREINCUBATION) “inactive; negative”; (Test System: Mouse lymphoma, Strain/Indicator: L5178Y (tk+/tk-), Metabolic Activation: None, Method: Suspension/plate) “inactive; negative”. Moreover, the mutagenic call is, setting by setting: (Test System: Mouse lymphoma, Strain/Indicator: L5178Y (tk+/tk-), Metabolic Activation: Rat, Liver, S-9, Aroclor 1254, Method: Suspension/plate) “inactive; inconclusive (previous evaluation negative)”; (Test System: UDS RODENT HEPATOCYTES, Strain/Indicator: THY INCORP, Metabolic Activation: NONE, Method: AUTORADIOGRAPHY) “inactive; negative”.

Regarding `O=C/C=C/c1ccccc1[N+](=O)[O-]`, the mutagenic call is “active; positive” under setting [2] and “active; positive” under setting [6].

For `Cc1ccc(S(=O)(=O)NC(=O)Nc2ncc([N+](=O)[O-])s2)cc1`, the mutagenic call by setting is: under setting [7], “inactive; negative”; under setting [3], “inactive; negative”.

In the case of `CC(I)C1OCC(CO)O1` (stereo unspecified), the mutagenic call by setting is: (Test System: AMES SALMONELLA TYPHIMURIUM, Strain/Indicator: TA98, Metabolic Activation: HAMSTER, LIVER, S-9, AROCLOR 1254, Method: PREINCUBATION) “inactive; negative”; under setting [1], “inactive; negative”; (Test System: AMES SALMONELLA TYPHIMURIUM, Strain/Indicator: TA98, Metabolic Activation: RAT, LIVER, S-9, AROCLOR 1254, Method: PREINCUBATION) “inactive; negative”; (Test System: AMES SALMONELLA TYPHIMURIUM, Strain/Indicator: TA100, Metabolic Activation: HAMSTER, LIVER, S-9, AROCLOR 1254, Method: PREINCUBATION) “active; positive”; under setting [2], “active; positive”; under setting [6], “active; positive”. For the same compound, the mutagenic call was “active; positive” (Test System: AMES SALMONELLA TYPHIMURIUM, Strain/Indicator: TA1535, Metabolic Activation: HAMSTER, LIVER, S-9, AROCLOR 1254, Method: PREINCUBATION); “active; positive” under setting [4]; “active; positive” (Test System: AMES SALMONELLA TYPHIMURIUM, Strain/Indicator: TA1535, Metabolic Activation: RAT, LIVER, S-9, AROCLOR 1254, Method: PREINCUBATION); “inactive; negative” (Test System: AMES SALMONELLA TYPHIMURIUM, Strain/Indicator: TA1537, Metabolic Activation: HAMSTER, LIVER, S-9, AROCLOR 1254, Method: PREINCUBATION); “inactive; negative” under setting [5]; “inactive; negative” (Test System: AMES SALMONELLA TYPHIMURIUM, Strain/Indicator: TA1537, Metabolic Activation: RAT, LIVER, S-9, AROCLOR 1254, Method: PREINCUBATION). Besides, the mutagenic call is “active; positive” (Test System: MOUSE LYMPHOMA, Strain/Indicator: L5178Y (TK+/TK-), Metabolic Activation: NONE, Method: SUSPENSION/PLATE) and “inactive; negative” (Test System: UDS RAT HEPATOCYTES, Metabolic Activation: NONE, Method: AUTORADIOGRAPHY).

Take `Cc1ccc(NO)c(C)c1`: the mutagenic call under setting [2] was “active; positive” and the mutagenic call (Test System: AMES SALMONELLA TYPHIMURIUM, Strain/Indicator: TA100, Metabolic Activation: RAT, LIVER, S-9, PCB, Method: PREINCUBATION) was “active; positive”.

As to `O=C(O)c1ccccc1[O-].O=C(O)c1ccccc1[O-].O=C(O)c1ccccc1[O-].[Cr+3]`, the mutagenic call is “inactive; negative” (Test System: AMES SALMONELLA TYPHIMURIUM, Strain/Indicator: TA92, Metabolic Activation: NONE, Method: STANDARD PLATE); “inactive; negative” (Test System: AMES SALMONELLA TYPHIMURIUM, Strain/Indicator: TA94, Metabolic Activation: NONE, Method: STANDARD PLATE); “inactive; negative” under setting [7]; “inactive; negative” under setting [3].
